Laboratory results from patent US20240317708A1, “INHIBITORS OF TRANSGLUTAMINASES” (ZEDIRA GMBH, priority 2021, published 2024).

Key:
[1] = Log D shake flask method (octanol / PBS pH 7.4, HPLC); format: physicochemical; conditions: octanol/phosphate-buffered saline (PBS); octanol / PBS pH 7.4, shake flask
Method: In order to classify the inventive compounds according to their lipophilicity, Log D values (distribution coefficient) were determined by means of the well-established shake flask method, measuring the partition of a compound between an octanol and phosphate-buffered saline (PBS, pH 7.4) by HPLC.

[2] = target: T1, recombinant human transglutaminase 2 (Homo sapiens, UniProt P21980); assay: Transglutaminase assay (dansylcadaverine incorporation into dimethylcasein, DCC-assay); format: biochemical; conditions: for IC50: recombinant human TG2 10 nM, dansylcadaverine/dimethylcasein, 37° C.
T1 construct: purchased Zedira T022
T1 sequence (P21980 1-687): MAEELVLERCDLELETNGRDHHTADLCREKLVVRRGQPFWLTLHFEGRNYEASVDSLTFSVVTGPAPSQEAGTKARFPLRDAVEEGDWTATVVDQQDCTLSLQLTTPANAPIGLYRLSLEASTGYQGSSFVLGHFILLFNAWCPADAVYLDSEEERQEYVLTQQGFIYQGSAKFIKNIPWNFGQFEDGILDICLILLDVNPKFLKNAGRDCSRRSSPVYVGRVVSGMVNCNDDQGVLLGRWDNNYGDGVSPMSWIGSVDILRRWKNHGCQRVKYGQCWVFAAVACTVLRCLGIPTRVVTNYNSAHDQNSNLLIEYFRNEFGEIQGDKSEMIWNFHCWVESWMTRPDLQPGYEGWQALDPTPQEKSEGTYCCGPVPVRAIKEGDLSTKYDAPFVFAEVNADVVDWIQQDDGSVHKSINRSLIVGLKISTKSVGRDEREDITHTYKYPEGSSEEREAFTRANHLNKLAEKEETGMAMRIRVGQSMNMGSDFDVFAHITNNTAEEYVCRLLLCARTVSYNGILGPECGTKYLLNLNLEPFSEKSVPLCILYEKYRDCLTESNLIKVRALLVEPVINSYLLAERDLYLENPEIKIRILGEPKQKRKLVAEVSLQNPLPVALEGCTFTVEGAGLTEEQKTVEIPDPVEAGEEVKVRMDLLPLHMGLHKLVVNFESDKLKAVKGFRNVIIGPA
Method: For the determination of potency of inhibitors against tissue transglutaminase, the incorporation of dansylcadaverine into dimethylcasein (Zedira product T036, Lorand et al., Anal Biochem, 1971, 44:221-31) was measured using recombinant human transglutaminase 2 (Zedira Product T022).
The tissue transglutaminase is diluted in buffer (50 mM Tris-HCl, 7.5 mM CaCl2, 150 mM NaCl, pH=7.4). The final concentration of TG2 in the assay is 10 nM.
A 10 mM inhibitor stock solution is prepared in DMSO, and from this a serial 1:2-fold dilution series is prepared also in DMSO. Each of the initial dilutions is subsequently diluted 1:50-fold with buffer (50 mM Tris-HCl, 7.5 mM CaCl2, 150 mM NaCl, pH=7.4) to yield the final working dilutions containing 2% (v/v) DMSO.
15 μl of inhibitor working dilution are added per well of a 96 well microtiter plate. As control, 15 μl of a 2% (v/v) DMSO solution prepared using the buffer mentioned above are added per well.
Immediately before starting the assay, 600 μl transglutaminase working solution are added to 11.4 ml assay buffer (50 mM Tris-HCl, 10 mM CaCl2, 10 mM glutathione, 2.5% glycerol, 16.7 μM dansylcadaverine, 4 μM N,N-dimethylcasein, 200 mM NaCl, pH=8.0). 285 μl of this reaction mix are added per well containing the inhibitor.
Increase in fluorescence is measured using λex=330 nm and λem=500 nm at 37° C. for 30 min. A slope of the increase in fluorescence between 20 and 30 min is calculated for determination of the IC50 value (inhibitor concentration at which 50% of the initial activity is blocked).
Analysis of enzymatic activity is performed by calculation of the slope of an increase in fluorescence intensity. IC50 values are calculated by plotting the enzymatic activity (as percentage from control containing 2% DMSO instead of inhibitor) against the inhibitor concentration. IC50 is defined as the inhibitor concentration blocking 50% of initial enzyme activity.

[3] = Caco-2 permeability assay (CacoReady kit); format: in vitro ADME; conditions: human
Method: Permeability coefficients (Papp values) were obtained from Caco-2 barrier studies predicting oral/intestinal bioavailability of the tested compounds. The assays were performed by using CacoReady™ ready-to-use kits from ReadyCell according to the manufacturers protocol.

Row | logD [1] | IC50 [2] [nM] | Papp [3] [×10⁻⁶ cm/s] | fold more potent compared to Ref. 3 ([2]; DCC-assay IC50 ratio vs Ref. 3 (A8)) [fold] | SMILES
1 | 3 to 5 | 25 to 250 | < 1 |  | COC(=O)/C=C/CC[C@H](NC(=O)c1cncc(C(=O)OC)c1)C(=O)Nc1cccn(CC(=O)NC2C3CC4CC(C3)CC2C4)c1=O (stereo partly drawn) [III-36, (S,E)-methyl 5-(1-(1-(2-(2-adamantylamino)-2-oxoethyl)-2-oxo-1,2-dihydropyridin-3-ylamino)-7-methoxy-1,7-dioxohept-5-en-2-ylcarbamoyl)nicotinate]
2 | 1 to 3 | < 25 | < 1 |  | COC(=O)/C=C/CC[C@H](NC(=O)c1snnc1C)C(=O)Nc1cccn(CC(=O)NC23CC4CC(C)(CC(C)(C4)C2)C3)c1=O [III-112, (S,E)-methyl 7-(1-(2-(3,5-dimethyladamantane-1-amino)-2-oxoethyl)-2-oxo-1,2-dihydropyridin-3-ylamino)-6-(4-methyl-1,2,3-thiadiazole-5-carboxamido)-7-oxohept-2-enoate]
3 | 1 to 3 | < 25 | < 1 |  | COC(=O)/C=C/CC[C@H](NC(=O)c1snnc1C)C(=O)Nc1cccn(CC(=O)N[C@@H]2C[C@H]3CC[C@@H]2C3)c1=O [III-110, (S,E)-methyl 7-(1-(2-((1R,2R,4S)-bicyclo[2.2.1]heptan-2-ylamino)-2-oxoethyl)-2-oxo-1,2-dihydropyridin-3-ylamino)-6-(4-methyl-1,2,3-thiadiazole-5-carboxamido)-7-oxohept-2-enoate]
4 | 3 to 5 | 250 to 1500 | < 1 |  | COC(=O)/C=C/CC[C@H](NC(=O)c1ncc(OC)o1)C(=O)Nc1cccn(CCC(=O)NC2C3CC4CC(C3)CC2C4)c1=O (stereo partly drawn) [III-133, (S,E)-methyl 7-(1-(3-(2-adamantylamino)-3-oxopropyl)-2-oxo-1,2-dihydropyridin-3-ylamino)-6-(5-methoxyoxazole-2-carboxamido)-7-oxohept-2-enoate]
5 | 3 to 5 | < 25 | 1 to 10 |  | COC(=O)/C=C/CC[C@H](NC(=O)c1oc2ccccc2c1C)C(=O)Nc1cccn(CC(=O)NC2C3CC4CC2CC(C)(C4)C3)c1=O (stereo partly drawn) [III-42, (S,E)-methyl 7-(1-(2-(5-methyladamantan-2-amino)-2-oxoethyl)-2-oxo-1,2-dihydropyridin-3-ylamino)-6-(3-methylbenzofuran-2-carboxamido)-7-oxohept-2-enoate]
6 | 1 to 3 | 25 to 250 | 1 to 10 |  | COC(=O)/C=C/CC[C@H](NC(=O)c1c(C)noc1C)C(=O)Nc1cccn(CC(=O)NC2C3CCCC2CC3)c1=O (stereo partly drawn) [III-135, (6S,E)-methyl 7-(1-(2-(bicyclo[3.2.1]octan-8-ylamino)-2-oxoethyl)-2-oxo-1,2-dihydropyridin-3-ylamino)-6-(3,5-dimethylisoxazole-4-carboxamido)-7-oxohept-2-enoate]
7 | 1 to 3 | 25 to 250 | < 1 |  | COC(=O)/C=C/CC[C@H](NC(=O)c1ccc2ccoc2c1)C(=O)Nc1cccn(CC(=O)NC2C3CC4CC2CC(C(N)=O)(C4)C3)c1=O (stereo partly drawn) [III-166, (S,E)-methyl 6-(benzofuran-6-carboxamido)-7-(1-(2-(4-aminoadamantane-1-carboxamide)-2-oxoethyl)-2-oxo-1,2-dihydropyridin-3-ylamino)-7-oxohept-2-enoate]
8 | 1 to 3 | < 25 | < 1 |  | COC(=O)/C=C/CC[C@H](NC(=O)c1cccnn1)C(=O)Nc1cccn(CC(=O)NC2C3CC4CC(C3)CC2C4)c1=O (stereo partly drawn) [III-86, (S,E)-methyl 7-(1-(2-(2-adamantylamino)-2-oxoethyl)-2-oxo-1,2-dihydropyridin-3-ylamino)-7-oxo-6-(pyridazine-3-carboxamido)hept-2-enoate]
9 | 3 to 5 | < 25 | 1 to 10 |  | COC(=O)/C=C/CC[C@H](NC(=O)c1cc2c(Br)cccc2o1)C(=O)Nc1cccn(CC(=O)NC2C3CC4CC(C3)CC2C4)c1=O (stereo partly drawn) [III-4, (S,E)-methyl 6-(4-bromobenzofuran-2-carboxamido)-7-(1-(2-(2-adamantylamino)-2-oxoethyl)-2-oxo-1,2-dihydropyridin-3-ylamino)-7-oxohept-2-enoate]
10 | 1 to 3 | 25 to 250 | 1 to 10 |  | COC(=O)/C=C/CC[C@H](NC(=O)c1oc2ccccc2c1C)C(=O)Nc1cccn(CC(=O)NC2CC3C=CC2C3)c1=O (stereo partly drawn) [III-66, (S,E)-methyl 7-(1-(2-(bicyclo[2.2.1]hept-5-en-2-ylamino)-2-oxoethyl)-2-oxo-1,2-dihydropyridin-3-ylamino)-6-(3-methylbenzofuran-2-carboxamido)-7-oxohept-2-enoate]
11 | 3 to 5 | < 25 | 1 to 10 |  | COC(=O)/C=C/CC[C@H](NC(=O)c1sc(C(F)(F)F)nc1C)C(=O)Nc1cccn(CC(=O)NC2C3CC4CC(C3)CC2C4)c1=O (stereo partly drawn) [III-14, (S,E)-methyl 7-(1-(2-(2-adamantylamino)-2-oxoethyl)-2-oxo-1,2-dihydropyridin-3-ylamino)-6-(4-methyl-2-(trifluoromethyl)thiazole-5-carboxamido)-7-oxohept-2-enoate]
12 | 1 to 3 | 25 to 250 | 1 to 10 |  | COC(=O)/C=C/CC[C@H](NC(=O)c1ncn(C)n1)C(=O)Nc1cccn(CC(=O)NC2C3CC4CC(C3)CC2C4)c1=O (stereo partly drawn) [III-105, (S,E)-methyl 7-(1-(2-(2-adamantylamino)-2-oxoethyl)-2-oxo-1,2-dihydropyridin-3-ylamino)-6-(1-methyl-1H-1,2,4-triazole-3-carboxamido)-7-oxohept-2-enoate]
13 | 3 to 5 | < 25 | 1 to 10 |  | COC(=O)/C=C/CC[C@H](NC(=O)c1oc2ccccc2c1C)C(=O)Nc1cccn(CC(=O)NC23CC4CC(C)(CC(C)(C4)C2)C3)c1=O [III-46, (S,E)-methyl 7-(1-(2-(3,5-dimethyladamantan-1-amino)-2-oxoethyl)-2-oxo-1,2-dihydropyridin-3-ylamino)-6-(3-methylbenzofuran-2-carboxamido)-7-oxohept-2-enoate]
14 |  | 25 to 250 |  | 80 | CCC(CC)CNC(=O)Cn1cccc(NC(=O)[C@H](CC/C=C/C(=O)OC)NC(=O)c2cncn2C)c1=O [Ref. 2, reference compound]
15 | 3 to 5 | < 25 | < 1 |  | COC(=O)/C=C/CC[C@H](NC(=O)c1cccnc1)C(=O)Nc1cccn(CC(=O)NC2C3CC4CC(C3)CC2C4)c1=O (stereo partly drawn) [III-83, (S,E)-methyl 7-(1-(2-(2-adamantylamino)-2-oxoethyl)-2-oxo-1,2-dihydropyridin-3-ylamino)-6-(nicotinamido)-7-oxohept-2-enoate]
16 | 3 to 5 | < 25 | < 1 |  | COC(=O)/C=C/CC[C@H](NC(=O)c1cc(C(=O)OC)cc([N+](=O)[O-])c1)C(=O)Nc1cccn(CC(=O)NC2C3CC4CC(C3)CC2C4)c1=O (stereo partly drawn) [III-33, (S,E)-methyl 3-(1-(1-(2-(2-adamantylamino)-2-oxoethyl)-2-oxo-1,2-dihydropyridin-3-ylamino)-7-methoxy-1,7-dioxohept-5-en-2-ylcarbamoyl)-5-nitrobenzoate]
17 |  | 25 to 250 |  |  | COC(=O)/C=C/CC[C@H](NC(=O)c1cn[nH]n1)C(=O)Nc1cccn(CC(=O)NC2C3CC4CC(C3)CC2C4)c1=O (stereo partly drawn) [III-102, (S,E)-methyl 7-(1-(2-(2-adamantylamino)-2-oxoethyl)-2-oxo-1,2-dihydropyridin-3-ylamino)-7-oxo-6-(1H-1,2,3-triazole-4-carboxamido)hept-2-enoate]
